Source: ChEMBL document CHEMBL6083197, “Design, synthesis, inhibitory activity, and molecular simulations study for d-glucose-conjugated thioureas containing pyrimidine ring as multitarget inhibitors against α-amylase, α-glucosidase, DDP-4, and PTP1B in Type 2 diabetes mellitus” (RSC Med Chem, 2024)
≈ marks a conversion by molar mass, not a printed value. One block for each compound: values may come before it.

Legend:
[1] = Inhibition of alpha-amylase (unknown origin) using starch as substrate preincubated for 10 mins followed by substrate addition and measured after 10 mins by DNSA reagent based spectrophotometric assay; design: species or system Homo sapiens
[2] = Inhibition of alpha-amylase (unknown origin) using starch as substrate incubated for 10 mins by DNS reagent based spectrometric assay; design: species or system Homo sapiens
[3] = Inhibition of alpha-glucosidase (unknown origin) using p-nitrophenyl-glucopyranoside as substrate incubated for 10 mins; design: species or system Homo sapiens
Dipeptidyl peptidase 4 [4] = molecular target: T1, Dipeptidyl peptidase 4 (Homo sapiens, UniProt P27487); test: Inhibition of DPP-4 (unknown origin)
T1 sequence (P27487 whole entry): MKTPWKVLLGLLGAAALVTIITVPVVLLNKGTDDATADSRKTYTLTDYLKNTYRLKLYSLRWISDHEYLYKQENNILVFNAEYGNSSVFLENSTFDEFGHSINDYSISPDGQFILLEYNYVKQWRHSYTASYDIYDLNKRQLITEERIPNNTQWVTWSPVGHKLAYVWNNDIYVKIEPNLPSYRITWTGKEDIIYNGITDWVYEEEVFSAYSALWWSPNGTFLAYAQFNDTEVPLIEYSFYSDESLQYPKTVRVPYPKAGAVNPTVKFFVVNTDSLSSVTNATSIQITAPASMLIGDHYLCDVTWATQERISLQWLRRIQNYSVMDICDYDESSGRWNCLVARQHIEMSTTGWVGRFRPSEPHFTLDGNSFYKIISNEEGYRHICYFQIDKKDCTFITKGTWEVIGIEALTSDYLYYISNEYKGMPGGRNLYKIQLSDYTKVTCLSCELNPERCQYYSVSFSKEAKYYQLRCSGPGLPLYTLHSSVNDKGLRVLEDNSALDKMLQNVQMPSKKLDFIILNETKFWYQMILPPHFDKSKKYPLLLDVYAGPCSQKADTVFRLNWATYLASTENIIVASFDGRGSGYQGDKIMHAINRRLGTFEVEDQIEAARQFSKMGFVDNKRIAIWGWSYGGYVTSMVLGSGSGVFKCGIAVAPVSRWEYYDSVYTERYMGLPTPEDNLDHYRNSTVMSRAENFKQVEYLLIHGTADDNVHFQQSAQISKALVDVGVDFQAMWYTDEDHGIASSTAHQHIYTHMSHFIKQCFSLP

Dipeptidyl peptidase 4 [5] = molecular target: T1, Dipeptidyl peptidase 4; test: Inhibition of recombinant human DPP-4 using Gly-Pro-AMC as substrate by fluorometric assay
[6] = Inhibition of alpha-glucosidase (unknown origin) using p-nitrophenyl-alpha-D-glucoside as substrate preincubated for 5 mins followed by substrate addition and measured after 20 mins by microplate reader assay
[7] = Inhibition of alpha-amylase (unknown origin) using starch as substrate preincubated for 10 mins followed by substrate addition and measured after 10 mins by 3, 5-dinitrosalicylic acid reagent based microplate reader assay

- IC50 [1]: 24.23 µg/mL (≈ 50.3 µM)
SMILES: CCOC(=O)C1=C(C)NC(=O)NC1c1ccc(Nc2cccc3c2C(=O)c2ccccc2C3=O)cc1 (configuration not stated)

- IC50 [2]: 49.5 µg/mL (≈ 139 µM)
- IC50 [3]: 55.98 µg/mL (≈ 157 µM)
SMILES: CN(C)/C(N)=N/c1nc(-c2ccccc2)cc(-c2c[nH]c3ccccc23)n1

- IC50 (Dipeptidyl peptidase 4 [4]): 0.0029 µM
SMILES: Nc1nc(NC2=NC(c3ccccc3)=CC(c3cccc([N+](=O)[O-])c3)N2)nc(N2CCOCC2)n1 (configuration not stated)

- IC50 (Dipeptidyl peptidase 4 [5]): 0.00051 µM
SMILES: O=C(SC1=NC(c2ccc(Cl)cc2)=CC(c2ccc([N+](=O)[O-])cc2)N1)c1ccccc1CN1C(=O)c2ccccc2C1=O (configuration not stated)

- IC50 [6]: 7.2 µM
- IC50 [7]: 9.32 µM
SMILES: C[C@H]1O[C@H](O[C@H]2[C@H](O)[C@@H](O)[C@@H](O[C@H]3[C@H](O)[C@@H](O)C(O)O[C@@H]3CO)O[C@@H]2CO)[C@H](O)[C@@H](O)[C@@H]1N[C@H]1C=C(CO)[C@@H](O)[C@H](O)[C@H]1O (some centres not stated) [ACARBOSE]
